This note sets out measurements from US20030229053A1, “Compounds and methods for the treatment or prevention of flavivirus infections” (Shire BioChem Inc., priority 2001, published 2003).

Each structure is given as a SMILES string.

Sequence of recombinant HCV NS5B (P26663 2420-3010 limits assumed): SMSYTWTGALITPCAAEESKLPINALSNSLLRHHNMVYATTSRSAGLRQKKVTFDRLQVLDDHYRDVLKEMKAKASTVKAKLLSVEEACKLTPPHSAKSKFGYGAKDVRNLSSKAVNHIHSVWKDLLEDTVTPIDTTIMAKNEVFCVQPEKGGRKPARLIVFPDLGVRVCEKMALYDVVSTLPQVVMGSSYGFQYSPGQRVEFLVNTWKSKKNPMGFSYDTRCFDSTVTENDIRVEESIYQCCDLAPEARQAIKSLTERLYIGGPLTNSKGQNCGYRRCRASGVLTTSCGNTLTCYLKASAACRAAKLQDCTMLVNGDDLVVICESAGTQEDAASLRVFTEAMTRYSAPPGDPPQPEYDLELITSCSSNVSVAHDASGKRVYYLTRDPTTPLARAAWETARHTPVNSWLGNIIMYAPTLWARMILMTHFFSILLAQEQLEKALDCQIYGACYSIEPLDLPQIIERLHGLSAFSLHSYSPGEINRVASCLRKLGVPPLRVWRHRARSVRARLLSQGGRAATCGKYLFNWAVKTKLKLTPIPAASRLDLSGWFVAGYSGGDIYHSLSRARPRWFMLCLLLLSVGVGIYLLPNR

The target in the assay is recombinant HCV NS5B (Hepatitis C virus genotype 1b, UniProt P26663). The experiment in a line: biochemical. Particulars: flashplate, polyrA/biotinylated-oligo dT, 100 nM NS5B, 2 hrs at room temperature; read-out: RNA pol Assay 2 IC50 (μm). The protocol:
In vitro HCV RdRp Flashplate Scintillation Proximity Assay (Strep-Flash Assay) Used to Evaluate Analogues:
In brief, a 400 ng/μl polyrA solution (Amersham Pharmacia Biotech) was mixed volume-to-volume with 5′ biotin-oligo dT12 at 20 pmol/μl. The template and primers were denatured at 95 C for 5 minutes then incubated at 37 C for 10 minutes. Annealed template-primers were subsequently diluted in a Tris-HCl containing buffer and allowed to bind to streptavidin-coated flashplates overnight.
The IC50 is the concentration at which inhibition is half-maximal. As for `O=C(O)[C@H](Cc1ccccc1)N(Cc1sccc1-c1cc(F)cc(F)c1)C(=O)c1ccc(Cl)cc1Cl` [compound #154, (2s)-2-{(2,4-Dichloro-benzoyl)-[3-(3,5-difluoro-phenyl)-thiophen-2-ylmethyl]-amino}-3-phenyl-propionic acid], the IC50 was less than 5 µM.

Regarding `O=C(O)[C@H](Cc1ccccc1)N(Cc1sccc1-c1ccc(Cl)c(Cl)c1)C(=O)c1ccc(Cl)cc1Cl` [compound #155, (2s)-2-{(2,4-Dichloro-benzoyl)-[3-(3,4-dichloro-phenyl)-thiophen-2-ylmethyl]-amino}-3-phenyl-propionic acid], the IC50 was less than 5 µM.

Regarding `O=C(O)[C@H](Cc1ccccc1)N(Cc1sccc1-c1ccc(Cl)c(F)c1)C(=O)c1ccc(Cl)cc1Cl` [compound #156, (2s)-2-[[3-(4-Chloro-3-fluoro-phenyl)-thiophen-2-ylmethyl]-(2,4-dichloro-benzoyl)-amino]-3-phenyl-propionic acid], the IC50 lay within 5 to 20 µM.

For the compound `O=C(O)[C@H](Cc1ccccc1)N(Cc1sccc1-c1ccc(Cl)cc1Cl)C(=O)c1ccc(Cl)cc1Cl` [compound #157, (2s)-2-{(2,4-Dichloro-benzoyl)-[3-(2,4-dichloro-phenyl)-thiophen-2-ylmethyl]-amino}-3-phenyl-propionic acid], the half-inhibitory concentration (IC50) is 5 to 20 µM.

`Cc1cccc(-c2ccsc2CN(C(=O)c2ccc(Cl)cc2Cl)[C@@H](Cc2ccccc2)C(=O)O)c1` [compound #158, (2s)-2-[(2,4-Dichloro-benzoyl)-(3-m-tolyl-thiophen-2-ylmethyl)-amino]-3-phenyl-propionic acid]: the IC50 was less than 5 µM.

In the case of `CCOC(=O)c1ccccc1-c1ccsc1CN(C(=O)c1ccc(Cl)cc1Cl)[C@@H](Cc1ccccc1)C(=O)O` [compound #159, (2s)-2-(2-{[(1s-1-Carboxy-2-phenyl-ethyl)-(2,4-dichloro-benzoyl)-amino]-methyl}-thiophen-3-yl)-benzoic acid ethyl ester], the IC50 was 5 to 20 µM.

With `CCOC(=O)c1ccc(-c2ccsc2CN(C(=O)c2ccc(Cl)cc2Cl)[C@@H](Cc2ccccc2)C(=O)O)cc1` [compound #160, (2s)-4-(2-{[(1s-1-Carboxy-2-phenyl-ethyl)-(2,4-dichloro-benzoyl)-amino]-methyl}-thiophen-3-yl)-benzoic acid ethyl ester], the IC50 was less than 5 µM.

For the compound `O=C(O)[C@H](Cc1ccccc1)N(Cc1sccc1-c1cccc(F)c1)C(=O)c1ccc(Cl)cc1Cl` [compound #161, (2s)-2-{(2,4-Dichloro-benzoyl)-[3-(3-fluoro-phenyl)-thiophen-2-ylmethyl]-amino}-3-phenyl-propionic acid], the IC50 is 5 to 20 µM.

Turning to `N#Cc1cccc(-c2ccsc2CN(C(=O)c2ccc(Cl)cc2Cl)[C@@H](Cc2ccccc2)C(=O)O)c1` [compound #162, (2s)-2-[[3-(3-Cyano-phenyl)-thiophen-2-ylmethyl]-(2,4-dichloro-benzoyl)-amino]-3-phenyl-propionic acid], the 50% inhibitory concentration (IC50) is less than 5 µM.

With `O=C(O)C(c1cccs1)N(Cc1ccc(-c2cccc(C(F)(F)F)c2)o1)C(=O)c1ccc(Cl)cc1Cl` (centres unmarked) [compound #163, {(2,4-Dichloro-benzoyl)-[5-(3-trifluoromethyl-phenyl)-furan-2-ylmethyl]-amino}-thiophen-2-yl-acetic acid], the IC50 is 5 to 20 µM.

For the compound `CC(C)(C)OC(=O)N1CCC[C@H]1CN(C(=O)c1ccc(Cl)cc1Cl)[C@@H](Cc1ccccc1)C(=O)O` [compound #164, L-2-{[(1-Carboxy-2-phenyl-ethyl)-(2,4-dichloro-benzoyl)-amino]-methyl}-pyrrolidine-1-carboxylic acid #tert!-butyl ester], the IC50 was in the range of 5 to 20 µM.

Take `CC(C)(C)OC(=O)N1CCC[C@@H]1CN(C(=O)c1ccc(Cl)cc1Cl)[C@@H](Cc1ccccc1)C(=O)O` [compound #165, d-2-{[(1-carboxy-2-phenyl-ethyl)-(2,4-dichloro-benzoyl)-amino]-methyl}-pyrrolidine-1-carboxylic acid #tert!-butyl ester]: the IC50 was 5 to 20 µM.

Consider `O=C(O)[C@H](Cc1ccccc1)N(C(=O)c1ccc(Cl)cc1Cl)C1CCN(C(=O)OCc2ccccc2)CC1` [compound #166, 4-[(1-Carboxy-2-phenyl-ethyl)-(2,4-dichloro-benzoyl)-amino]-piperidine-1-carboxylic acid benzyl ester], for which the IC50 fell in the range of 5 to 20 µM.

For `O=C(O)[C@H](Cc1ccccc1)N(C[C@@H]1CCCN1)C(=O)c1ccc(Cl)cc1Cl` [compound #167, 1-2-[(2,4-Dichloro-benzoyl)-pyrrolidin-2-ylmethyl-amino]-3-phenyl-propionic acid], the IC50 was 5 to 20 µM.

Turning to `O=C(O)[C@H](Cc1ccccc1)N(Cc1cccnc1)C(=O)c1ccc(Cl)cc1Cl` [compound #170, 2-[(2,4-Dichloro-benzoyl)-pyridin-3-ylmethyl-amino]-3-phenyl-propionic acid], the IC50 lay within 5 to 20 µM.

As to `O=C(O)C(Cc1ccccc1)N(Cc1ccc(C(F)(F)F)cc1)C(=O)c1ccc(Cl)cc1Cl` (centres unmarked) [compound #171, 2-[(2,4-Dichloro-benzoyl)-(4-trifluoromethyl-benzyl)-amino]-3-phenyl-propionic acid], the IC50 fell in the range of 5 to 20 µM.

Regarding `O=C(O)C(Cc1ccccc1)N(Cc1ccc(OCc2ccc(F)cc2)cc1)C(=O)c1ccc(Cl)cc1Cl` (centres unmarked) [compound #172, 2-{(2,4-Dichloro-benzoyl)-[4-(4-fluoro-benzyloxy)-benzyl]-amino}-3-phenyl-propionic acid], the 50% inhibitory concentration (IC50) was 5 to 20 µM.

For `O=C(O)C(Cc1ccccc1)N(Cc1ccc(F)c(C(F)(F)F)c1)C(=O)c1ccc(Cl)cc1Cl` (centres unmarked) [compound #173, 2-[(2,4-Dichloro-benzoyl)-(4-fluoro-3-trifluoromethyl-benzyl)-amino]-3-phenyl-propionic acid], the IC50 fell in the range of 5 to 20 µM.

For `O=C(O)C(Cc1ccccc1)N(Cc1cccn1S(=O)(=O)c1ccccc1)C(=O)c1ccc(Cl)cc1Cl` (centres unmarked) [compound #174, 2-[(1-Benzenesulfonyl-1h-pyrrol-2-ylmethyl)-(2,4-dichloro-benzoyl)-amino]-3-phenyl-propionic acid], the IC50 lay within 5 to 20 µM.

For the compound `O=C(O)C(Cc1ccccc1)N(Cc1cccc(Oc2ccc(Cl)cc2)c1)C(=O)c1ccc(Cl)cc1Cl` (centres unmarked) [compound #175, 2-[[3-(4-Chloro-phenoxy)-benzyl]-(2,4-dichloro-benzoyl)-amino]-3-phenyl-propionic acid], the IC50 was 5 to 20 µM.

As for `O=C(O)C(Cc1ccccc1)N(Cc1ccccc1OCc1ccccc1)C(=O)c1ccc(Cl)cc1Cl` (centres unmarked) [compound #177, 2-[(2-Benzyloxy-benzyl)-(2,4-dichloro-benzoyl)-amino]-3-phenyl-propionic acid], the half-inhibitory concentration (IC50) lay within 5 to 20 µM.

Turning to `COc1ccc(C(C)C)cc1-c1ccsc1CN(C(=O)c1ccc(Cl)cc1Cl)[C@@H](Cc1ccccc1)C(=O)O` [compound #178, 2-{(2,4-Dichloro-benzoyl)-[3-(5-isopropyl-2-methoxy-phenyl)-thiophen-2-ylmethyl]-amino}-3-phenyl-propionic acid], the half-maximal inhibitory concentration (IC50) fell in the range of 5 to 20 µM.

In the case of `O=C(O)[C@H](Cc1ccccc1)N(Cc1sccc1-c1ccc(OC(F)(F)F)cc1)C(=O)c1ccc(Cl)cc1Cl` [compound #179, 2-{(2,4-Dichloro-benzoyl)-[3-(4-trifluoromethoxy-phenyl)-thiophen-2-ylmethyl]-amino}-3-phenyl-propionic acid], the half-inhibitory concentration (IC50) was 5 to 20 µM.
